Source: patent publication US11066383B2, “Inhibitors of indoleamine 2,3-dioxygenase and methods of their use” (BRISTOL-MYERS SQUIBB COMPANY, priority 2016, dated 2021)

Target: T1, human IDO1 (Homo sapiens, UniProt P14902)
T1 construct: expressed in transfected cells
Experiment: HEK Human IDO-1 inhibition assay (kynurenine production in human IDO1/HEK293 cells)
Format: cell-based
Settings: read-out: Bio Activity (μM) IC50
Experimental: HEK293 cells were transfected with a pCDNA-based mammalian expression vector harboring human IDO1 cDNA (NM 002164.2) by electroporation. They were cultured in medium (DMEM with 10% FBS) containing 1 mg/ml G418 for two weeks. Clones of HEK293 cells that stably expressed human IDO1 protein were selected and expanded for IDO inhibition assay.
The human IDO1/HEK293 cells were seeded at 10,000 cells per 50 μL per well with RPMI/phenol red free media contains 10% FBS in a 384-well black wall clear bottom tissue culture plate (Matrix Technologies LLC) 100 nL of certain concentration of compound was then added to each well using ECHO liquid handling systems. The cells were incubated for 20 hours in 37° C. incubator with 5% CO2.
The compound treatments were stopped by adding trichloroacetic acid (Sigma-Aldrich) to a final concentration at 0.2%. The cell plate was further incubated at 50° C. for 30 minute. The equal volume supernatant (20 μL) and 0.2% (w/v) Ehrlich reagent (4-dimethylaminobenzaldehyde, Sigma-Aldrich) in glacial acetic acid were mixed in a new clear bottom 384-well plate. This plate was then incubated at room temperature for 30 minute. The absorbance at 490 nm was measured on Envision plate reader.
Compound IC50 values were calculated using the counts of 500 nM of a reference standard treatment as one hundred percent inhibition, and counts of no compound but DMSO treatment as zero percent inhibition.

T1 sequence (P14902 whole entry): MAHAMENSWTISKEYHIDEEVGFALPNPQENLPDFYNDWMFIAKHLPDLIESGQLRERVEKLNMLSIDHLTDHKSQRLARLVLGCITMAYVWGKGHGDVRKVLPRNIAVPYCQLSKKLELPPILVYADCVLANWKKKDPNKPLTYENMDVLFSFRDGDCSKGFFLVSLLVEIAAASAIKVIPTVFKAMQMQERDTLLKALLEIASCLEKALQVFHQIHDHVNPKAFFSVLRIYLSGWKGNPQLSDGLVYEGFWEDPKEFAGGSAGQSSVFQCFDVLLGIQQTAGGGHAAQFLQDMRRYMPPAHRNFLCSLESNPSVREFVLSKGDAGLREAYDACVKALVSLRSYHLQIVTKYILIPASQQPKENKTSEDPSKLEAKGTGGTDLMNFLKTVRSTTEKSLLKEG

Row | SMILES | IC50
1 | Cc1cc(Cl)ccc1CNC(=O)CC1(C)CCN(c2ccnc3ccc(F)cc23)CC1 [Example 1, N-(4-Chloro-2-methylbenzyl)-2-(1-(6-fluoroquinolin-4-yl)-4-methylpiperidin-4-yl)acetamide] | < 0.1 µM
2 | CC1(CC(=O)NC2(c3ccc(Cl)cc3Cl)CC2)CCN(c2ccnc3ccc(F)cc23)CC1 [Example 2, N-(1-(2,4-dichlorophenyl)cyclo-propyl)-2-(1-(6-fluoroquinolin-4-yl)-4-methylpiperidin-4-yl)acetamide] | < 0.1 µM
3 | CC1(CC(=O)NC(C)(C)c2ccc(Cl)cc2)CCN(c2ccnc3ccc(F)cc23)CC1 [Example 3, N-(2-(4-chlorophenyl)propan-2-yl)-2-(1-(6-fluoroquinolin-4-yl)-4-methylpiperidin-4-yl)acetamide] | < 0.1 µM
4 | C[C@H](NC(=O)CC1(C)CCN(c2ccnc3ccc(F)cc23)CC1)c1ccc(Cl)cc1 [Example 4, (S)-N-(1-(4-chlorophenyl)ethyl)-2-(1-(6-fluoroquinolin-4-yl)-4-methylpiperidin-4-yl)acetamide] | < 0.1 µM
5 | CC1(CC(=O)NCc2ccc(Cl)cc2)CCN(c2ccnc3ccc(F)cc23)CC1 [Example 5, N-(4-chlorobenzyl)-2-(1-(6-fluoroquinolin-4-yl)-4-methylpiperidin-4-yl)acetamide] | < 1 µM
6 | CC[C@H](NC(=O)CC1(C)CCN(c2ccnc(C(F)(F)F)c2)CC1)c1ccccc1 [Example 6, (S)-2-(4-Methyl-1-(2-(trifluoromethyl)pyridin-4-yl)piperidin-4-yl)-N-(1-phenylpropyl)acetamide] | < 1 µM
7 | CC1(CC(=O)NC2(c3ccc(Cl)cc3Cl)CC2)CCN(c2ccnc(C(F)(F)F)c2)CC1 [Example 7, N-(1-(2,4-dichlorophenyl)cyclo-propyl)-2-(4-methyl-1-(2-(trifluoro-methyl)pyridin-4-yl)piperidin-4-yl)acetamide] | < 1 µM
8 | CC1(CC(=O)NC(C)(C)c2ccc(Cl)cc2)CCN(c2ccnc(C(F)(F)F)c2)CC1 [Example 8, N-(2-(4-chlorophenyl)propan-2-yl)-2-(4-methyl-1-(2-(trifluoromethyl)-pyridin-4-yl)piperidin-4-yl)acetamide] | < 10 µM
9 | C[C@H](NC(=O)CC1(C)CCN(c2ccnc(C(F)(F)F)c2)CC1)c1ccc(Cl)cc1 [Example 9, (S)-N-(1-(4-chlorophenyl)ethyl)-2-(4-methyl-1-(2-(trifluoromethyl)-pyridin-4-yl)piperidin-4-yl)acetamide] | < 1 µM
10 | C[C@@H](C(=O)NCc1ccccc1Cl)[C@H]1CC[C@@H](c2ccnc3ccc(F)cc32)CC1 [Example 10, (R)—N-(2-chlorobenzyl)-2-((cis)-4-(6-fluoroquinolin-4-yl)cyclohexyl)propanamide] | < 1 µM
11 | C[C@@H](C(=O)NCc1ccc(-c2ccccc2)cc1)[C@H]1CC[C@@H](c2ccnc3ccc(F)cc32)CC1 [Example 12, (R)-N-([1,1′-biphenyl]-4-ylmethyl)-2-((cis)-4-(6-fluoroquinolin-4-yl)cyclohexyl)propanamide] | < 1 µM

Further lines, results first:

Row | IC50 | SMILES
12 | < 10 µM | CCCC(C(=O)NC12CC3CC(CC(C3)C1)C2)N1CCN(c2ccnc3ccc(F)cc23)CC1 (single isomer, unassigned) [Example 19-1]
13 | < 1 µM | C[C@H](NC(=O)[C@H](C)[C@H]1CC[C@@H](c2ccnc3ccc(F)cc32)CC1)c1ccccc1 [Example 13, (R)-2-((cis)-4-(6-fluoroquinolin-4-yl)cyclohexyl)-N-((S)-1-phenylethyl)propanamide]
14 | < 0.1 µM | C[C@H](NC(=O)[C@H](C)[C@H]1CC[C@@H](c2ccnc3ccc(F)cc32)CC1)c1ccc(Cl)cc1 [Example 14, (R)-N-((S)-1-(4-chlorophenyl)ethyl)-2-((cis)-4-(6-fluoroquinolin-4-yl)cyclohexyl)propanamide]
15 | < 1 µM | C[C@@H](C(=O)NC(C)(C)c1ccc(Cl)cc1)[C@H]1CC[C@@H](c2ccnc3ccc(F)cc32)CC1 [Example 15, (R)-N-(2-(4-chlorophenyl)propan-2-yl)-2-((cis)-4-(6-fluoroquinolin-4-yl)cyclohexyl)propanamide]
16 | < 1 µM | C[C@@H](C(=O)NC1(c2ccc(Cl)cc2Cl)CC1)[C@H]1CC[C@@H](c2ccnc3ccc(F)cc32)CC1 [Example 16, (R)-N-(1-(2,4-dichlorophenyl)cyclopropyl)-2-((cis)-4-(6-fluoroquinolin-4-yl)cyclohexyl)propanamide]
17 | < 10 µM | C[C@@H](NC(=O)[C@H](C)[C@H]1CC[C@@H](c2ccnc3ccc(F)cc32)CC1)c1ccc(Cl)cc1 [Example 17, (R)-N-((R)-1-(4-chlorophenyl)ethyl)-2-((1s,4S)-4-(6-fluoroquinolin-4-yl)cyclohexyl)propanamide]
18 | < 10 µM | C[C@@H](C(=O)NCc1ccccc1)[C@H]1CC[C@@H](c2ccnc3ccc(F)cc32)CC1 [Example 18]
19 | < 0.1 µM | CC1(CC(=O)NC23CC4CC(CC(C4)C2)C3)CCN(c2ccnc3ccc(F)cc23)CC1 [Example 22, N-((3s,5s,7s)-Adamantan-1-yl)-2-(1-(6-fluoroquinolin-4-yl)-4-methylpiperidin-4-yl)acetamide]
20 | < 1 µM | CC1(CC(=O)N[C@@]23C[C@@H]4C[C@@H](C[C@@](O)(C4)C2)C3)CCN(c2ccnc3ccc(F)cc23)CC1 [Example 23, 2-(1-(6-Fluoroquinolin-4-yl)-4-methylpiperidin-4-yl)-N-((1r,3s,5R,7S)-3-hydroxyadamantan-1-yl)acetamide]
